Tests used:
[1] = test system: IL-5 production; assay: Inhibition of IL-5 production by D10.G4.1 Th2 cells stimulated with conalbumin and antigen presenting cells (IL-5 ELISA); format: cell-based; details: inhibitory effect on IL-5 production; murine Th2 clone D10.G4.1 cells, conalbumin as antigen, 48 hours incubation, IL-5 in supernatant by ELISA
Protocol: The action on IL-5 production in mice was examined according to the following method as disclosed in […], et al., Immunology Letters, Vol. 34, pp. 297-302 (1992). Murine Th2 clone (D10.G4.1 cells) was purchased from ATCC. Antigen presenting cells were prepared by suspending 1 x 10^7 spleen cells of a 8-week-old female C3H/HeN mice in 5 ml of an RPMI-1640 medium and incubated together with 50 μg/ml of mitomycin C (MMC) at 37°C for 30 minutes and then washed with three 50 ml portions of RPMI-1640. To RPMI-1640 containing 10% bovine serum were added 0.5 U of IL-2 (produced by Genzyme) and 5 x 10^-5 M of 2-mercaptoethanol to prepare a medium for tissue culture. A test compound was dissolved in dimethyl sulfoxide (DMSO) and diluted with the tissue culture medium to have a final DMSO concentration of 0.1% and a varied test compound concentration. In each well of a 96-well microtiter plate (produced by Corning Glass Works) were put each 50 μl/well of 4 x 10^5 cells/ml of D10.G4.1 cells, 2 x 10^6 cells/ml of MMC-treated antigen presenting cells, 400 μg/ml of conalbumin (produced by Sigma) as an antigen and the solution of the test compound in the tissue culture medium (to make 200 μl/well), and incubated in an incubator under 5% CO2 at 37°C for 48 hours. After completion of the incubation, the supernatant liquor of the culture was collected, and the cells were separated by centrifugation. The IL-5 in the supernatant liquor was determined with an IL-5 ELISA kit produced by ENDOGEN. […]

[2] = test system: ICR male mice; assay: Oral toxicity (mortality) in mice; format: in vivo; details: orally administered to ICR male mice grouped in fives, dose level of 100 mg/kg
From the text: The compounds of Examples 1, 2, and 3 were orally administered to ICR male mice grouped in fives.

[3] = test system: IL-5 production; details: reported in Japanese Journal of Allergology, 44(3-2), p. 424 (1993); judged not sufficient by the patent; cited from earlier work

Compound	IC50 [1]	death [2]	inhibitory activity on IL-5 production [3]
6-O-Methylerythromycin A 9-[O-(2-Chlorophenylmethyl)oxime] [Compound of Example 1]	270 nM	No death was observed	
6-O-Methylerythromycin A 9-[O-(3-Methoxy-4-t-butylbenzyl)oxime] 11,12-Cyclic Carbonate [Compound of Example 2]	120 nM	No death was observed	
11-Amino-9-N,11-N-cyclic ethylene-9-deoxo-11-deoxy-6-O-methylerythromycin A 9-Benzylamine 11-N,12-O-Cyclic Carbamate [Compound of Example 3]	120 nM	No death was observed	
CC[C@H]1OC(=O)[C@H](C)[C@@H](O[C@H]2C[C@@](C)(OC)[C@@H](O)[C@H](C)O2)[C@H](C)[C@@H](O[C@@H]2O[C@H](C)C[C@H](N(C)C)[C@H]2O)[C@](C)(O)C[C@@H](C)C(=O)[C@H](C)[C@@H](O)[C@]1(C)O [Erythromycin]			have an inhibitory activity on IL-5 production
CC[C@H]1OC(=O)[C@H](C)[C@@H](O[C@H]2C[C@@](C)(OC)[C@@H](O)[C@H](C)O2)[C@H](C)[C@@H](O[C@@H]2O[C@H](C)C[C@H](N(C)C)[C@H]2O)[C@](C)(O)C[C@@H](C)/C(=N\OCOCCOC)[C@H](C)[C@@H](O)[C@]1(C)O [Roxithromycin]			have an inhibitory activity on IL-5 production
